How the values were obtained:
[1] = Release of PTX in vitro (linker hydrolysis) in human serum; format: in vitro ADME; conditions: 100 μM stock diluted 10-fold in 100% human serum, 37 °C, HPLC, triplicate
Description: (§1) Stock solutions of AGM-330-PTX (100 μM) were diluted 10-fold with pre-warmed 100% human serum (Sigma-Aldrich) or PBS and incubated at 37 °C for 0, 1, 2, 6 and 12 h. […] Each experiment was performed in triplicate.
(§2) Figure S10. A, B, Changes in the HPLC chromatogram of AGM-330-PTX after incubation with human serum (A) or PBS (B). C, D, MS spectra of AGM-330-PTX (C) and AGM-330 (D). E, Time-dependent fluorescence imaging of AGM-330-PTX-Rh in MDA-MB-231 cells. Cells were incubated with 5 μmol/l AGM-330-PTX-Rh. […]
(§3) bit secondary antibody coupled to Alexa Fluor 488. Cells were then fixed with 4 % paraformaldehyde, and the nuclei were stained with DAPI. MERGE represents a merged image of AGM-330, PTX, and nuclear staining by […]

MDA-MB-231-luc xenograft = test: Tumorigenesis experiment, MDA-MB-231-luc breast cancer xenograft
Description: All animal experiments were performed in accordance with IACUC guidelines (GIST-2019-040). For tumorigenesis experiments, anesthetized 6-week-old female NOD-scid Il2rg^-^/^- mice (NPG^TM, VITALSTAR) were inoculated in the mammary fat pad with 1 × 10^6 MDA-MB-231-luc cells in a 100 μl volume (n = 5 for each group). After tumor cell inoculation, when the tumor volume reached approximately 100 mm^3, the mice were randomly divided into the following five groups: (i) control, (ii) low-dose paclitaxel (2 mg/kg), (iii) high-dose paclitaxel (10 mg/kg), (iv) AGM-330 (16.68 mg/kg, molar equivalent to 2 mg/kg of PTX), and (v) AGM-330-PTX (19.05 mg/kg, molar equivalent to 2 mg/kg of PTX). The tumor size was measured twice a week, and the tumor volume was calculated with the following formula: volume (mm^3) = [length (mm)] × [width (mm)]^2 × 0.5. For the bioluminescent imaging experiment, D-luciferin (150 mg/kg; PerkinElmer) was intraperitoneally injected into each mouse, and an IVIS 100 imaging system (Xenogen, Corporation, Alameda, CA) was used for bioluminescent monitoring. Mice were anesthetized with vaporized isofurane (BK Pharm, Ilsan, Korea) and placed in an imaging chamber. After 10 min, each animal was imaged with an exposure time of 1 min. All bioluminescent image data were obtained using Living Image software (version 4.5.2, PerkinElmer). Photons detected from tumors were converted to average radiance values (photon/sec/cm^2/sr), which are quantitative data obtained from a region of […] (ROI) and include the photons emitted by bioluminescent cells from an assigned rectangular area over the whole body of each mouse.
A, Cell proliferation inhibition by AGM-330-PTX treatment was determined for 48 h by the WST assay in multiple breast and colorectal cancer cells and in normal cells. B, Schematic representation of the experimental protocol as described in the materials and methods section. Anesthetized 6‑week-old […] NPG mice were inoculated with a 1:1 mix of Matrigel and 1 × 10^6 MDA-MB-231-luc cells into the mammary fat pad. When the volume of primary tumors reached approximately 100 mm^3, tumor-bearing mice were treated with vehicle (PBS), PTX (2 or 10 mg/kg), AGM-330 (16.68 mg/kg, molar equivalent to 2 mg/kg of PTX), or AGM-330-PTX (19.05 mg/kg, molar equivalent to 2 mg/kg of PTX; n = 5/group). C-E, The therapeutic effect of AGM-330-PTX was evaluated in breast cancer xenograft models. C, Primary tumor volume was measured twice a week until the day of sacrifice. The primary tumor volume was calculated by the formula volume (mm^3) = (length (mm)) × (width (mm))^2 × 0.5. D, On the day of sacrifice, all primary tumors were isolated, and (E) the primary tumor weights were evaluated. F-I, Immunohistochemistry (IHC) sections of representative tumors with Ki-67 (F,H) and TUNEL (G,I) staining. Nuclei were stained with DAPI (blue). Scale bar, 50 µm. Bar graphs represent the mean ± SD, and statistical analyses were performed by one-way ANOVA with Dunnett's multiple comparison. *, **, and *** indicate P < 0.05, P < 0.01, and P < 0.001, respectively.
Following in vitro proliferation analysis on cancer lines, we investigated whether AGM-330-PTX could be a potential therapeutic agent in vivo. We inoculated MDA-MB-231-luc cells into the mammary fat pad of NPG mice. After the […] tumors grew to 100 mm^3, comparative efficacy studies were performed by dividing the animals into five groups (n = 5/group) treated with vehicle (PBS), PTX (2 or 10 mg/kg, respectively), AGM-330 (16.68 mg/kg, molar equivalent to 2 mg/kg of PTX), or AGM-330-PTX (19.05 mg/kg, molar equivalent to 2 mg/kg of PTX) twice a week by tail vein injection (Figure 5B). Tumor growth was monitored by measuring volumes twice a week with a caliber rule over the course of 3 weeks.
Figure S11. A-E, NPG TM mice bearing MDA-MB-231-luc tumors were treated twice a week for 21 days with […]

[2] = Release of PTX in vitro (linker hydrolysis) in PBS; format: physicochemical; conditions: 100 μM stock diluted 10-fold in PBS, 37 °C, HPLC, triplicate
Description: as §1, §2, §3

[3] = system: normal cells (MCF-10A, CCD-18Co); test: Flow cytometry binding of FITC-labeled peptide; format: cell-based, human; conditions: 1 × 10^5 cells, 2 h at 37 °C, serum-free medium
Description: (§4) Fluorescence-activated cell-sorting (FACS) analysis was used to check the binding of the FITC labeled peptides (FITC-peptide). The stock solution for the FITC-peptides (100 μM) was prepared by dissolving the peptide in PBS. MCF-10A, MCF-7, MDA-MB-231, CCD-18Co, HT-29, and HCT-116 cells were seeded in 6-well plates (10^5 cells/well) containing 3 ml of medium, and the plates were then incubated at 37 °C overnight. […] Thereafter, the medium was removed, and the cells were washed with cold PBS to remove any remaining peptide. Adequate trypsin/EDTA was added to each well, which was followed by a 3 ~ 5 min incubation at 37 °C. Trypsin/EDTA was immediately neutralized by adding medium, and the cell suspension was then transferred into centrifuge tubes. The cells were separated and washed twice with PBS. […] The prepared cells were analyzed on a FACScanto II (BD Biosciences, San Jose, CA, USA) flow cytometer, and the FACS data were analyzed using FlowJo (TreeStar, Ashland, OR, USA).
(§5) Next, to examine whether the MAP ligand can selectively bind to cancer cells, cancer cells treated with FITC-labeled AGM-330 (AGM-330-FITC) were compared with untreated cells. […] Then, the inherent fluorescence of peptide-treated cells were compared and measured based on changes in the mean fluorescence intensity (MFI) values compared to those of untreated cells (Figure 1D and E).

[4] = system: cancer cells (MCF-7, MDA-MB-231, HT-29, HCT-116); test: Flow cytometry binding of FITC-labeled peptide; format: cell-based, human; conditions: 1 × 10^5 cells, 2 h at 37 °C, serum-free medium
Description: as §4, §5

MDA-MB-231 cells = test: Time-dependent binding/internalization of AGM-330-FITC, confocal microscopy; format: cell-based, human; conditions: 5 μmol/l, 37 °C, 1, 3, 6 and 12 h, confocal fluorescence
Description: We evaluated the specificity of AGM-330 to NCL with cell binding assays against different cell lines using fluorescence microscopy. The experiment was performed using multiple cancer cell lines, MCF-7, MDA-MB-231, HT-29, and HCT-116, and normal cell lines, MCF-10A, and CCD-18Co. The binding specificity was determined by confocal imaging after 1 h of incubation of the cells with 5 μmol/l AGM-330-FITC. The cells were incubated with DAPI to counterstain the nuclei (blue fluorescence). […] To evaluate the ability of AGM-330 to undergo NCL-mediated endocytosis, MDA-MB-231 cells were incubated with AGM-330-FITC at 37 °C for different times (1, 3, 6 and 12 h). […] As mentioned in a previous study, N6L is essentially built on a lysine-rich helicoid template formed by a repeat of 6 tripeptide units. […] Therefore, the difference in the molecular structure between AGM-330 and N6L may be caused by different endocytosis mechanisms. […] However, except for membrane NCL, we could not confirm the protein associated with internalization among the proteins bound to AGM-330 (Figure 2D). Taken together, N6L, which binds to both membrane NCL and nucleophosmin, induce apoptosis after internalization into nucleolus of cancer cells.
Figure S6. Time-dependent in vitro binding assay of AGM-330-FITC toward cancer cells. MDA-MB-231 cells were incubated with 5 μmol/l AGM-330-FITC for 1, 3, 6 and 12 h at 37 °C. […]

[5] = AGM-330-PTX treatment, xenograft

Compound | hydrolysis of the propionic acid linker (release of PTX) in serum [1] | average tumor volume (MDA-MB-231-luc xenograft; 19.05 mg/kg (molar equivalent to 2 mg/kg of PTX), tail vein twice a week, day 21, n = 5) [mm^3] | final average tumor weight (MDA-MB-231-luc xenograft; 19.05 mg/kg (molar equivalent to 2 mg/kg of PTX), tail vein twice a week, n = 5) [g] | blood chemistry analysis (ALB, GOT, GPT, TP-PS, UA in serum) (MDA-MB-231-luc xenograft; 19.05 mg/kg twice a week for 21 days, n = 5) | mouse body weight versus vehicle (PBS) (MDA-MB-231-luc xenograft; 19.05 mg/kg twice a week, 3 weeks, n = 5) | histology of excised tumors (H&E, Ki-67, TUNEL) (MDA-MB-231-luc xenograft; 19.05 mg/kg twice a week, excised tumors) | decrease of average tumor volume with respect to the same dose PTX (MDA-MB-231-luc xenograft; 19.05 mg/kg versus PTX 2 mg/kg, n = 5) | decrease in tumor volume compared with the PBS-treated group (MDA-MB-231-luc xenograft; [5]) [%] | decrease in tumor weight compared with the PBS-treated group (MDA-MB-231-luc xenograft; [5]) [%] | hydrolysis of the propionic acid linker (release of PTX) in PBS [2] | binding to normal cells (MFI) [3] | binding to cancer cells (MFI relative to untreated cells) [4] | cellular uptake / internalization (MDA-MB-231 cells)
CSCC[C@H](NC(=O)[C@H](C)NC(=O)CNC(=O)[C@H](Cc1c[nH]cn1)NC(=O)[C@@H](N)CCCNC(=N)N)C(=O)N[C@H](C(=O)N[C@@H](Cc1ccc(O)cc1)C(=O)N[C@@H](CC(C)C)C(=O)N[C@@H](CCCCN)C(=O)NCCOCCOCCOCCOCCOCCOCCOCCOCCOCCOCCOCCOCCC(=O)NCCCC[C@H](NC(=O)CCOCCOCCOCCOCCOCCOCCOCCOCCOCCOCCOCCOCCNC(=O)[C@H](CCCCN)NC(=O)[C@H](CC(C)C)NC(=O)[C@H](Cc1ccc(O)cc1)NC(=O)[C@@H](NC(=O)[C@H](CCSC)NC(=O)[C@H](C)NC(=O)CNC(=O)[C@H](Cc1c[nH]cn1)NC(=O)[C@@H](N)CCCNC(=N)N)C(C)C)C(=O)NCCCC[C@H](NC(=O)[C@H](CCCCNC(=O)CCOCCOCCOCCOCCOCCOCCOCCOCCOCCOCCOCCOCCNC(=O)[C@H](CCCCN)NC(=O)[C@H](CC(C)C)NC(=O)[C@H](Cc1ccc(O)cc1)NC(=O)[C@@H](NC(=O)[C@H](CCSC)NC(=O)[C@H](C)NC(=O)CNC(=O)[C@H](Cc1c[nH]cn1)NC(=O)[C@@H](N)CCCNC(=N)N)C(C)C)NC(=O)CCOCCOCCOCCOCCOCCOCCOCCOCCOCCOCCOCCOCCNC(=O)[C@H](CCCCN)NC(=O)[C@H](CC(C)C)NC(=O)[C@H](Cc1ccc(O)cc1)NC(=O)[C@@H](NC(=O)[C@H](CCSC)NC(=O)[C@H](C)NC(=O)CNC(=O)[C@H](Cc1c[nH]cn1)NC(=O)[C@@H](N)CCCNC(=N)N)C(C)C)C(=O)N[C@@H](CSC1CC(=O)N(CCC(=O)O[C@@H](C(=O)O[C@H]2C[C@@]3(O)[C@@H](OC(=O)c4ccccc4)[C@@H]4[C@]5(OC(C)=O)CO[C@@H]5C[C@H](O)[C@@]4(C)C(=O)[C@H](OC(C)=O)C(=C2C)C3(C)C)[C@@H](NC(=O)c2ccccc2)c2ccccc2)C1=O)C(=O)O)C(C)C (stereo partly shown) [AGM-330-PTX] | almost completely hydrolyzed after 2 h | 807 ± 90 | 1.3 ± 0.1 | no adverse signs of toxicity | not affected | a reduction in the number of cancerous cells and an increase in apoptotic cell nuclei | approximately 52% | 63 | 43 | fully hydrolyzed in PBS after 12 h | – | – | –
AGM-330-FITC (RHGAMVYLK; PEG12 after the C-terminal Lys of each RHGAMVYLK arm, joined to a trilysine core; FITC (by FITC-5-maleimide)) | – | – | – | – | – | – | – | – | – | – | significant decrease in binding to normal cells | significant cancer cell binding | not taken up by the cytoplasm or nucleolus

From publication PMC7415810, “A novel nucleolin-binding peptide for Cancer Theranostics” (Theranostics, 2020)
